Holding throughout (assay type): cell-based
The test system of experiment [1] is Daudi. Nature of the experiment: CellTiter-Glo cell viability, Daudi. To be noted: Homo sapiens; Daudi cells, 72 h with compound. The protocol:
(§1) Antitumor activity against a panel of cancer cell lines Antitumor activity of the compounds was assessed by using the CellTiter-Glow® Luminescent Cell Viability assay (Promega #G7572) according to the manufacturer's instructions. The compounds were tested at 5 or 6 concentrations in 1:2 dilution increments (highest concentration 10 µM) in triplicate well conditions.
(§2) Tumor cells were grown at 37° C. in a humidified atmosphere with 5% CO2 in RPMI 1640 or DMEM medium, supplemented with 10% (v/v) fetal calf serum and 50 μg/ml gentamicin for up to 20 passages, and were passaged once or twice weekly. Cells were harvested using TrypLE or PBS buffer containing 1 mM EDTA, and the percentage of viable cells is determined using a cell counter.
(§3) Cells were harvested from exponential phase cultures, counted and plated in 96 well flat-bottom microtiter plates at a cell density depending on the cell line's growth rate (4,000-20,000 cells/well depending on the cell line's growth rate) in RPMI 1640 or DMEM medium supplemented with 10% (v/v) fetal calf serum and 50 μg/ml gentamicin (140 μl/well). Cultures were incubated at 37° C. and 5% CO2 in a humidified atmosphere. […] Viability of cells was quantified by the CellTiter-Glow® Luminescent Cell Viability assay (Promega #G7572). Luminescence was measured with the microplate luminometer (En Vision Perkin Elmer). […]
(ATP-based viability assays read luminescence as a measure of living cells.)

The test system of experiment [2] is Toll-like Receptor (TLR4). Nature of the experiment: SelectScreen CellSensor pathway inhibition, Toll-like Receptor (TLR4). To be noted: Homo sapiens; NFkB-bla THP-1, stimulus LPS. The protocol:
(§4) Inhibition of various cellular pathways known to be involved in malignancy was tested using the SelectScreen Cell-based Pathway Profiling GeneBLAzer™ cell signaling pathway specific CellSensor™ cell lines ((Thermo Fisher). The assay is based on a beta-lactamase reporter activity which is modulated and can be measured quantitatively and selectively with the LiveBLAzer™-FRET B/G Loading Substrate. SelectScreen Cell-Based Pathway Profiling Service uses XLfit from IDBS. The dose response curve is curve fit to model number 205 (sigmoidal dose-response model). Custom logic was built by Thermo Fisher for the data analysis tool to address the different compound characteristics that can be observed with functional assays.
Toll-like Receptor (TLR4)—NFKB-bla THP-1—Inhibitor Screen, Activated by LPS
(§5) NFKB-bla THP-1 cells are thawed and resuspended in Assay Media (RPMI, 0.5% dialyzed FBS, 0.1 mM NEAA, 1 mM Sodium Pyruvate, 100 U/mL/100 g/mL Pen/Strep) to a concentration of 625,000 cells/mL. 32 μL of cell suspension is added to each well of a 384-well TC-Treated assay plate. Cells in Assay Media are incubated for 16-24 hours in the plate at 37° C./5% CO2 in a humidified incubator. […] The plate is read on a fluorescence plate reader.

The subject of experiment [3] is Wnt/Beta-Catenin. Put plainly: SelectScreen CellSensor pathway inhibition, Wnt/Beta-Catenin. To be noted: Homo sapiens, HCT-116; LEF-TCF-bla HCT116, no stimulus (constitutively activated). The protocol: as §4
Wnt/Beta-Catenin—LEF-TCF-bla HCT116—Inhibitor Screen, Constitutively Activated
as §5, with “LEF-TCF-bla HCT116” for “NFKB-bla THP-1”, “(OPTI-MEM,” for “(RPMI,”, “μg/mL” for “g/mL”, “312,500” for “625,000”, “Poly-D-Lysine” for “TC-Treated”, “incubator. 4 μL of a 10× serial dilution of ICG-001 (control inhibitor starting concentration, 25,000 nM) or compounds are added to appropriate wells of the plate.” for “incubator.”

For experiment [4], the system named is DMS-114. Put plainly: Caspase-Glo 3/7 apoptosis assay, DMS-114. The following applies: DMS-114 cells, 10 μM, 24 h. The protocol: (§6) Apoptosis activity was evaluated using Caspase-Glo 3/7 Assay kit (Promega-G8091) according to the manufacturer's instructions. Cells were grown as above and harvested from exponential phase cultures, counted and plated in 96 black well flat-bottom microtiter plates at a cell density depending on the cell line's growth rate (3,000-10,000 cells/well depending on the cell line's growth rate). Following an overnight incubation, compounds were added to the cell plates at various concentrations (highest at […]) with the DMSO concentration maintained at 0.1% for a 24 h period treatment. 100 μL of Caspase-Glo 3/7 Reagent was added to each well of 96-well plate containing 100 μL culture medium, and after 30 min at room temperature, luminescence was measured with the microplate luminometer (EnVision Perkin Elmer). The induced relative Caspase 3/7 activity of the tested compounds was determined by the following formula: Relative Caspase 3/7 activity (fold increase)=(RLU compound−RLU blank)/(RLU control−RLU blank).

Experiment [5] concerns LoVo. Nature of the experiment: CellTiter-Glo cell viability, LoVo. The following applies: Homo sapiens; LoVo cells, 72 h with compound. The protocol: as §1, §2, §3
Experiment [6] concerns HCC-15. Put plainly: CellTiter-Glo cell viability, HCC-15. The following applies: HCC15; HCC-15 cells, 72 h with compound. The protocol:
as §1, §2
Cells were harvested from exponential phase cultures, counted and plated in 96 well flat-bottom microtiter plates at a cell density depending on the cell line's growth rate (4,000-20,000 cells/well depending on the cell line's growth rate) in RPMI 1640 or DMEM medium supplemented with 10% (v/v) fetal calf serum and 50 μg/ml gentamicin (140 μl/well). Cultures were incubated at 37° C. and 5% CO2 in a humidified atmosphere. After 24 h, 10 μl of test compounds or control medium are added, and left on the cells for another 72 h. Compounds were serially diluted in DMSO, transferred in cell culture medium, and added to the assay plates. The DMSO concentration was kept constant at <0.2% v/v across the assay plate. Viability of cells was quantified by the CellTiter-Glow® Luminescent Cell Viability assay (Promega #G7572). Luminescence was measured with the microplate luminometer (En Vision Perkin Elmer).
Sigmoidal concentration-response curves were fitted to the data points (test-versus-control, T/C values) obtained for each tumor model using Graph Pad prism 5.02 software. IC50 values are reported as absolute IC50 values, being the concentration of test compound at the intersection of the concentration-response curves with T/C=50%.

Experiment [7] concerns CHP-134. Put plainly: Caspase-Glo 3/7 apoptosis assay, CHP-134. The following applies: CHP-134 cells, 3.16 μM, 24 h. The protocol:
as §6

This note sets out measurements from US20260028364A1, “CATIONIC CHROMENONES AND THEIR USE IN ONCOLOGY” (FLORATEK PHARMA S.A., priority 2022, published 2026).

Take `COc1ccc2c(=O)c(-c3ccc(CCCC[P+](c4ccccc4)(c4ccccc4)c4ccccc4)cc3)coc2c1OC.[Br-]` [SND470, (4-(4-(7,8-Dimethoxy-4-oxo-4H-chromen-3-yl)phenyl)butyl)triphenylphosphonium bromide]: the IC50 in experiment [1] stood at 710 nM; in experiment [2], 560 nM; in experiment [3] it was 970 nM; in experiment [5], 910 nM; in experiment [6] it was 10 nM. For the same compound, the “Fold activation of Caspase 3/7” value in experiment [4] was 3.32 Fold; in experiment [7] it was 7.02 Fold.

As a reminder, the IC50 is the concentration that gives 50% inhibition.
